From patent US6521814B1, “Use of ligands for treatment of diseases responsive to retinoids” (Institut National de la Santa et de la Recherche Medicale, priority 1997, dated 2003)

How the values were obtained:
RARα−/− F9 cells [1] = test: Morphological differentiation of F9 cell aggregates into visceral endoderm (VE)-like cells (morphology, RT-PCR of markers); assay type: cell-based, murine; design: key to proportion of outer layer of cells displaying VE morphology: +++: more than 80%; ++: 50-80%; +: 10-50%; ±: not more than 10%; (−): no visible effect; conditions: 10 d
From the text: (§1) Similarly, after 10 d of treatment, >80% of the outer layer of RARα^−/− and RXRα^−/−/RARα^−/− cell aggregates differentiated into VE-like cells, which were indistinguishable from those of WT and RXRα^−/− cells (FIG. 23A, compare f with panels b and d; and Table 9). […] To exclude the possibility that this very poor differentiation of the RXRα^−/−/RARγ^−/− cells could be due to some clonal variation, rather than the presence of the RXRα-null mutation in the RARγ-null background, we expressed the RXRα cDNA in RXRα^−/−/RARγ^−/− cells.
(§2) F9 cells were cultured and induced to differentiate into primitive, parietal and visceral endoderm-like cells as previously described (Boylan, J., et al., Proc. Natl. Acad. Sci. USA 90:9601-9605 (1993); Clifford, J., et al., EMBO J. 15:4142-4155 (1996)).
(§3) RNA preparation, RT-PCR, and Southern blotting were performed as previously described (Bouillet, P., et al., Dev. Biol. 170:420-433 (1995); Roy, B., et al., Mol. Cell. Biol. 15:6481-6487 (1995)). The PCR primers and end-labeled oligonucleotide probes for collagen IVα1, laminin B1, α-fetoprotein (AFP), and 36B4, were described previously (Clifford, J., et al ., EMBO J. 15:4142-4155 (1996)). Transcript levels were quantified using a BAS 2000 bioimaging analyzer (Fuji Ltd., Tokyo, Japan), and were normalized to the corresponding 36B4 signals.

WT F9 cells [2] = test: as above; assay type: cell-based, murine; design: key to proportion of outer layer of cells displaying VE morphology: +++: more than 80%; ++: 50-80%; +: 10-50%; ±: not more than 10%; (−): no visible effect; conditions: WT, 10 d
From the text: as §1, §2, §3

RXRα−/− F9 cells [3] = test: as above; assay type: cell-based, murine; conditions: 10 d
From the text: (§4) Transcript levels were quantified using a BAS 2000 bioimaging analyzer (Fuji Ltd., Tokyo, Japan), and were normalized to the corresponding 36B4 signals.

RXRα−/−/RARα−/− F9 cells [4] = test: as above; assay type: cell-based, murine; conditions: RXRα−/−/RARα−/−, 10 d
From the text: as §4

RARγ−/− F9 cells [5] = test: as above; assay type: cell-based, murine; design: key to proportion of outer layer of cells displaying VE morphology: +++: more than 80%; ++: 50-80%; +: 10-50%; ±: not more than 10%; (−): no visible effect; conditions: RARγ−/−, 10 d
Protocol: as §2, §3

RARα−/− F9 cells [6] = test: Proliferation of F9 cells in monolayer culture (cell counting, [3H]thymidine incorporation, cell cycle FACS); assay type: cell-based, murine; conditions: 6 d
Protocol: (§5) Cells were plated in triplicate 3-cm culture wells (5×10^2 cells per well), and cell counting experiments were performed as previously described (Clifford, J., et al., EMBO J. 15:4142-4155 (1996)). [^3H]Thymidine incorporation assays were performed essentially as described (Clifford, J., et al., EMBO J. 15:4142-4155 (1996)), with the following modifications. […] The cell cycle profile of WT and mutant cells was determined as previously described (Clifford, J., et al. EMBO J. 15:4142-4155 (1996)).

RARγ−/− F9 cells [7] = test: as above; assay type: cell-based, murine; conditions: 6 d
Protocol: as §5

WT F9 cells [8] = test: as above; assay type: cell-based, murine; conditions: 6 d
Protocol: as §5

RXRα−/− F9 cells [9] = test: as above; assay type: cell-based, murine; conditions: 6 d
RXRα−/−/RARα−/− F9 cells [10] = test: as above; assay type: cell-based, murine; conditions: 6 d
RXRα−/−/RARγ−/− F9 cells = test: as above; assay type: cell-based, murine; conditions: 6 d
RARγ−/− F9 cells [11] = test: Apoptosis of F9 cells (Hoechst 33258 staining, FACS); assay type: cell-based, murine; conditions: 100 nM, 6 d
Protocol: (§6) Apoptosis was analyzed by both Hoechst staining of nuclei and FACS® analysis, as previously described (Clifford, J., et al., EMBO J. 15:4142-4155 (1996)).

WT F9 cells [12] = test: as above; assay type: cell-based, murine; conditions: 6 d
Protocol: as §6

RXRα−/− F9 cells [13] = test: as above; assay type: cell-based, murine; conditions: 100 nM, 6 d
RARα−/− F9 cells [14] = test: as above; assay type: cell-based, murine; design: key: (−): no visible effect; conditions: 6 d
Protocol: as §6

RXRα−/−/RARα−/− F9 cells [15] = test: as above; assay type: cell-based, murine; conditions: 100 nM, 6 d
D2R promoter = D2R promoter CAT reporter assay in transfected COS-1 cells, reporter alone; assay type: cell-based, rat; conditions: C1 reporter-transfected COS-1 cells, no receptor vector; 10^−7 M
From the text: Expression Vectors. The C1 reporter construct was obtained by subcloning the HindIII fragment spanning the 5 ′ promoter region of the D2R gene (positions −495 to +273), in the reporter plasmid pBLCAT3 (Luckow, B. & Schütz, G., Nucleic Acids Res. 15:5490 (1987)). The C2 reporter plasmid was constructed by subcloning the SmaI-XhoI fragment (positions −76 to +273) in the same position. The C3 and C4 reporters were generated by cloning a 29 bp synthetic oligonucleotide corresponding, respectively, to the natural rat D2R RARE sequence and the mutated one into pBLCAT2 (Luckow, B. & Schütz, G., Nucleic Acids Res. 15:5490 (1987)). The polylinker in pBLCAT2 is located upstream of the herpes simplex virus 1 (HSV1) thymidine kinase (TK) promoter, from position −105 to +51. To measure transfection efficiency the plasmid pCH110 carrying the β-galactosidase gene (Pharmacia) was used. Mouse […], as well as mouse RXRα, β and γ expression vectors were derived from the parental pSG5 vector (Green, S., et al., Nucleic Acids Res. 16:369 (1988)).
COS-1 cells were used for transient transfection assays. Cells were grown in Dulbecco's modified Eagle's medium supplemented with 5% fetal calf serum.
Several hours before transfection, the medium was replaced with fresh medium containing 5% charcoal-treated FCS. […]

RARα/RXRγ = target: T1, RARα/RXRγ (Mus musculus, UniProt P11416;P28705 P11416:1-462,P28705:1-463); test: cell_activity; C3 TK-CAT reporter with one RARE D2 copy, t-RA and 9-cis-RA; conditions: tags: pSG5 expression vectors, COS-1 cells; label: 32P
T1 sequence 1: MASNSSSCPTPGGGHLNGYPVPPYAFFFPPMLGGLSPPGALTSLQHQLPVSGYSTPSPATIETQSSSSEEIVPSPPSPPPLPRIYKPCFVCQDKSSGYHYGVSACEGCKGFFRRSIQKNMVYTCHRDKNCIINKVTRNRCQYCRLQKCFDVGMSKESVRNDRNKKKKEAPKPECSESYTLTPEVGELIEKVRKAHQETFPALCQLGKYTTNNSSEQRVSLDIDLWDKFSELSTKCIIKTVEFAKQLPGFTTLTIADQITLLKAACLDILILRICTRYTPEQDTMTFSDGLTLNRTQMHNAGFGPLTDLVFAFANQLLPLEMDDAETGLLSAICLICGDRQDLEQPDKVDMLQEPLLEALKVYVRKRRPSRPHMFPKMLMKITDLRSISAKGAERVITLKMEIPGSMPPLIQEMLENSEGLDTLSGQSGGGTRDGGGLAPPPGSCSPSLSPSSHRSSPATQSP
T1 sequence 2: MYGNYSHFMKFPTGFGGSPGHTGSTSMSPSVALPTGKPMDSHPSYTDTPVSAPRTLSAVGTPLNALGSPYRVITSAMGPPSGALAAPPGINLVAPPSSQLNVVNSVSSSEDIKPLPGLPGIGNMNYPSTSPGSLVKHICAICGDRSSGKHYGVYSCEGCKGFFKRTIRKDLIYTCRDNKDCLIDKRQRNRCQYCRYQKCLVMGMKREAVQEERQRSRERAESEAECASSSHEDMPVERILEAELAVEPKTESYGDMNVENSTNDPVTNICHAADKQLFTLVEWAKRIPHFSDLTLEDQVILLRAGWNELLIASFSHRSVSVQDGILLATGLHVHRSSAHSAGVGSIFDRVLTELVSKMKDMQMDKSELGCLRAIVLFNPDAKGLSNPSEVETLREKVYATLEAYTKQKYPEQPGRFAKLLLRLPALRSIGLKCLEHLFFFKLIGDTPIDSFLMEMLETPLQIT
Protocol: Bars represent the mean of several independent experiments and standard deviations are indicated.
Several hours before transfection, the medium was replaced with fresh medium containing 5% charcoal-treated FCS. Cells (10^6 per 10 cm plate) were transfected by the calcium phosphate method using 2 μg of the reporter plasmid, 0.1 μg of retinoid acid receptor expression vectors and 0.5 μg of pCH110. In all transfection assays, the Bluescript (SK^-) plasmid was used as a carrier to reach 20 μg of total transfected DNA per plate.

Molecule: CC1(C)CCC(C)(C)c2cc([C@@H](O)C(=O)Nc3ccc(C(=O)O)cc3F)ccc21 [RARγ agonist]
- proportion of outer layer of cells displaying VE morphology (RARα−/− F9 cells [1]; 1 nM): (−)
- proportion of outer layer of cells displaying VE morphology (RARα−/− F9 cells [1]; 10 nM): +++ (more than 80%)
- proportion of outer layer of cells displaying VE morphology (RARα−/− F9 cells [1]; 100 nM): +++ (more than 80%)
- proportion of outer layer of cells displaying VE morphology (WT F9 cells [2]; 1 nM): (−)
- proportion of outer layer of cells displaying VE morphology (WT F9 cells [2]; 10 nM): ± (not more than 10%)
- proportion of outer layer of cells displaying VE morphology (WT F9 cells [2]; 100 nM): +++ (more than 80%)
- proportion of outer layer of cells displaying VE morphology (RXRα−/− F9 cells [3]; 10 nM): + (10-50%)
- proportion of outer layer of cells displaying VE morphology (RXRα−/− F9 cells [3]; 100 nM): +++ (more than 80%)
- proportion of outer layer of cells displaying VE morphology (RXRα−/−/RARα−/− F9 cells [4]; 10 nM): + (10-50%)
- proportion of outer layer of cells displaying VE morphology (RXRα−/−/RARα−/− F9 cells [4]; 100 nM): +++ (more than 80%)
- proportion of outer layer of cells displaying VE morphology (RARγ−/− F9 cells [5]; 1 nM): (−)
- proportion of outer layer of cells displaying VE morphology (RARγ−/− F9 cells [5]; 10 nM): (−)
- proportion of outer layer of cells displaying VE morphology (RARγ−/− F9 cells [5]; 100 nM): (−)
- number of cells in percent relative to cells grown in 0.1% ethanol (RARα−/− F9 cells [6]; 10 nM): 100%
- number of cells in percent relative to cells grown in 0.1% ethanol (RARα−/− F9 cells [6]; 100 nM): 30%
- number of cells in percent relative to cells grown in 0.1% ethanol (RARγ−/− F9 cells [7]; 10 nM): 100%
- number of cells in percent relative to cells grown in 0.1% ethanol (RARγ−/− F9 cells [7]; 100 nM): 100%
- number of cells in percent relative to cells grown in 0.1% ethanol (WT F9 cells [8]; 10 nM): 100%
- number of cells in percent relative to cells grown in 0.1% ethanol (WT F9 cells [8]; 100 nM): 37%
- number of cells in percent relative to cells grown in 0.1% ethanol (RXRα−/− F9 cells [9]; 10 nM): 100%
- number of cells in percent relative to cells grown in 0.1% ethanol (RXRα−/− F9 cells [9]; 100 nM): 51%
- number of cells in percent relative to cells grown in 0.1% ethanol (RXRα−/−/RARα−/− F9 cells [10]; 10 nM): 100%
- number of cells in percent relative to cells grown in 0.1% ethanol (RXRα−/−/RARα−/− F9 cells [10]; 100 nM): 49%
- number of cells in percent relative to cells grown in 0.1% ethanol (RXRα−/−/RARγ−/− F9 cells; 10 nM): 100%
- number of cells in percent relative to cells grown in 0.1% ethanol (RXRα−/−/RARγ−/− F9 cells; 100 nM): 100%
- proportion of apoptotic nuclei and subcellular fragments (Hoechst 33258) (RARγ−/− F9 cells [11]): (−)
- proportion of apoptotic nuclei and subcellular fragments (Hoechst 33258) (WT F9 cells [12]; 10 nM): (−)
- proportion of apoptotic nuclei and subcellular fragments (Hoechst 33258) (WT F9 cells [12]; 100 nM): + (>1-10%)
- proportion of apoptotic nuclei and subcellular fragments (Hoechst 33258) (RXRα−/− F9 cells [13]): ±* (asterisks less than that in combination with 1 μM panRXR agonist)
- proportion of apoptotic nuclei and subcellular fragments (Hoechst 33258) (RARα−/− F9 cells [14]; 10 nM): (−)
- proportion of apoptotic nuclei and subcellular fragments (Hoechst 33258) (RARα−/− F9 cells [14]; 100 nM): + (>1-10%)
- proportion of apoptotic nuclei and subcellular fragments (Hoechst 33258) (RXRα−/−/RARα−/− F9 cells [15]): ±* (asterisks less than that in combination with 1 μM panRXR agonist)

Molecule: CC1=C(/C=C/C(C)=C\C=C\C(C)=C\C(=O)O)C(C)(C)CCC1 [9-cis-RA, 9-cis RA]
- changes in CAT activity (D2R promoter): no significant changes

B1: RARE D2 (dsDNA)
DNA 1: AGCTTCCTCGTGGCCAGGGTGACCCCGCG
DNA 2: CGCGGGGTCACCCTGGCCACGAGGAAGCT
- activity (RARα/RXRγ): 11 fold
